Our source for the AC50, EC50 and IC50 values is ChEMBL document CHEMBL1201862, “PubChem BioAssay data set” (2004).

One test has as its system INS1. Nature of the test: INS-1E survival protection against cytokine death – cell-based, luminescence, retest, dose response (AID 449756).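 Note: cell death triggered by IL-1 beta plus TNF-alpha plus IFN-gamma mixture; protective hits raise ATP signal compared with cytokine alone wells.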 It counts as functional. The settings on record: Rattus norvegicus.
Test [1] has as its target ATP-dependent molecular chaperone HSP82 (Candida albicans (strain WO-1) (Yeast), UniProt C4YTQ8). Nature of the test: steroid-induced GRE reporter decrease in yeast – S. cerevisiae, luminescence, Hsp90 inhibitor project, dose response (AID 2400).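 Note: beta-galactosidase luminescence from glucocorticoid response element reporter as proxy for Hsp90 function; inhibitor potency where signal loss means Hsp90 inhibition.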 It counts as functional, cell-based.
A short description of test [2]: fluconazole-exposed Candida albicans growth modulators – fluorescence, retest, confirmation (AID 2467). It counts as functional, cell-based.
Test [3] addresses T1, Serine/threonine-protein phosphatase (Candida dubliniensis (strain CD36 / CBS 7987 / NCPF 3949 / NRRLY-17841) (Yeast), UniProt B9W6M3).
T1 sequence (B9W6M3 whole entry): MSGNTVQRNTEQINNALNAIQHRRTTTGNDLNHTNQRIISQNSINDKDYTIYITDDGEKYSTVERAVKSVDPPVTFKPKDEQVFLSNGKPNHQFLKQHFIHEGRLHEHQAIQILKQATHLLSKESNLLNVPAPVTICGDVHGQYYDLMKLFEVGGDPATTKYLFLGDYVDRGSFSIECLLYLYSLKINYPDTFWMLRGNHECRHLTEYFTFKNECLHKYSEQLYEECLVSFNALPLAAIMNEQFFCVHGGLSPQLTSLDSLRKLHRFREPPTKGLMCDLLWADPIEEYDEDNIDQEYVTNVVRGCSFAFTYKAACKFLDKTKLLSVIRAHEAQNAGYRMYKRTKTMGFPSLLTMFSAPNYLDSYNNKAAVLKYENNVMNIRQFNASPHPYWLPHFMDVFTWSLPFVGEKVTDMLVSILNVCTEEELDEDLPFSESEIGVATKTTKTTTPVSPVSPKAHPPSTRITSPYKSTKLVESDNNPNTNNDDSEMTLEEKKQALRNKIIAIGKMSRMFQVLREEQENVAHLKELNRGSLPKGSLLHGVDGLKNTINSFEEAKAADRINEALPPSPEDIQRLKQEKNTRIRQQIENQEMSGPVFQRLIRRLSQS
Nature of the test: blockers of CaCl2-induced CDRE-lacZ signaling – S. cerevisiae, luminescence, secondary, dose response (AID 2388).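 Note: yeast reporter cells carrying a calcineurin-responsive lacZ construct stimulated with calcium chloride; luminescent beta-galactosidase reporter signal in whole cells rather than isolated phosphatase activity; potency for inhibition where a drop in reporter signal means calcineurin blockade.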 It counts as functional, cell-based.

For the next test, the target named is T2, Protein RecA (Mycobacterium tuberculosis, UniProt P9WHJ3).
T2 sequence (P9WHJ3 whole entry): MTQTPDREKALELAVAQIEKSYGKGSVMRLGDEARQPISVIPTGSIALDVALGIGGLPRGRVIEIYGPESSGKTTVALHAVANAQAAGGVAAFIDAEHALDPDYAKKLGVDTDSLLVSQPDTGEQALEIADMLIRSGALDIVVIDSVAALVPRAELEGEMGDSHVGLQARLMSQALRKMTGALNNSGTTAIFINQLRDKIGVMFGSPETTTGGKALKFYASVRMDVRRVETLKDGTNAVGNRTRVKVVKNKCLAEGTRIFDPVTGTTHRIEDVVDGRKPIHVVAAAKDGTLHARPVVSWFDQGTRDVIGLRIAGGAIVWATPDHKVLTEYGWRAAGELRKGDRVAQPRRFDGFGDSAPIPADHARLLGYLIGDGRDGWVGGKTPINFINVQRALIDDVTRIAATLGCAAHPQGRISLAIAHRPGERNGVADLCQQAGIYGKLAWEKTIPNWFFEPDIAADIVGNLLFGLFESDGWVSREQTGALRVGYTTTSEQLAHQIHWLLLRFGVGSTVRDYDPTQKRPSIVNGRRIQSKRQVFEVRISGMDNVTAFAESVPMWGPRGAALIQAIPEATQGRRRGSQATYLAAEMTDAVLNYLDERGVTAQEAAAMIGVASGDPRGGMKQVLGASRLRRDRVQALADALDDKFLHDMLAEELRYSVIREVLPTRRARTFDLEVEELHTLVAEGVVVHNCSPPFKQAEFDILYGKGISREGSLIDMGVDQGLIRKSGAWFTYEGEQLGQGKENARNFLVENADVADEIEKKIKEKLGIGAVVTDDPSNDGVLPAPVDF
Nature of the test: Fluorescence Cell-Free Homogeneous Dose Retest to Identify Inhibitors of RecA-Intein Splicing Activity. [Related pubchem assays (depositor defined):AID2097, AID2223, AID489010, AID492950]. Format: functional.

Test [4] in a line: NIH-3T3 fibroblast cytotoxicity, dose response, cytotoxicity control, cell-based, fluorescence, Alamar Blue, secondary assay (AID 2327).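 Note: NIH-3T3 mouse fibroblasts cultured with fluconazole at 8 µg/mL.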 Format: functional.
For another test, the system named is Streptococcus. Nature of the test: GAS UMAA2166 growth inhibition – luminescence, BacTiterGlo, counter-screen for streptokinase expression inhibitor project, dose response (AID 1915).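 Note: potency for reduction of bacterial viability or growth.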 It counts as functional, organism-based. Background: The purpose of a counterscreen is to sort out artefacts and off-target activity.
Test [5] is described as follows: cells. It counts as functional, cell-based.
Test [6] in a line: cells. It counts as functional, cell-based. This is another data set of the same source.
Test [7] can be described thus: Counterscreen for AddAB inhibitors: absorbance-based bacterial cell-based high throughput dose response assay for inhibitors of bacterial viability. [Related pubchem assays (depositor defined):AID435030, AID449728, AID449731, AID488942, AID488955, AID488956]. Format: functional.

Activity calls are given as the source filed them. Cut-off read from the data, not from the text of the source, for most assays here: actives have a measured EC50 and inactives only a lower limit. Where only a bound is given, the exact number is not on record here.

Chain of ATP-dependent molecular chaperone HSP82 (C4YTQ8 whole entry): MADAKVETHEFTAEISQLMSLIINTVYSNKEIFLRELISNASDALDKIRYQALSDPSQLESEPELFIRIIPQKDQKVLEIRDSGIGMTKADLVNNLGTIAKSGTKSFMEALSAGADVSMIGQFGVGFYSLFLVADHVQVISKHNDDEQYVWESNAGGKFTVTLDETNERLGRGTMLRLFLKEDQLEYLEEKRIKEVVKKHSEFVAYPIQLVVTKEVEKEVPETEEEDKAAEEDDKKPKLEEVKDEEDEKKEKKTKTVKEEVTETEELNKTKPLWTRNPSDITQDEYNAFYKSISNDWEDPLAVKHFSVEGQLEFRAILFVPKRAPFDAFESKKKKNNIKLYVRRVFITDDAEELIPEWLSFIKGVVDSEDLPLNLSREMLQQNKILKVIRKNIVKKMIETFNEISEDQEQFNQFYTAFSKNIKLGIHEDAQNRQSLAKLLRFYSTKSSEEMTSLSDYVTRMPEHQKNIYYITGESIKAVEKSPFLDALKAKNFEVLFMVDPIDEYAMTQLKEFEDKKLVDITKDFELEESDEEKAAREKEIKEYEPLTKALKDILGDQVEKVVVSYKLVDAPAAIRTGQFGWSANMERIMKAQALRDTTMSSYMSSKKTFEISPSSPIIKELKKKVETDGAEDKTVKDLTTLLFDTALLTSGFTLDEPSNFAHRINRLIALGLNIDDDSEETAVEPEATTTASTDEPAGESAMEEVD

The AC50 is the concentration giving half of the maximal activity seen. Usually EC50 stands for the concentration needed to bring the measured effect to its halfway point. For `[O-][N+]1=c2ccc(Nc3ccccc3)cc2=NC12CCCCC2`, the AC50 in the test on INS1 is 5.64 µM (active). Further, the EC50 in [1] was > 150 µM (inactive); in [2], 1.46 µM (active); in [3], > 180 µM (inactive); at Protein RecA, 4.37 µM (active); in test [4], 146 µM (active).
With `CCc1ccc(S(=O)(=O)/N=C2\C=C(Nc3ccc(C(=O)O)cc3)C(=O)c3ccccc32)cc1`, the AC50 in the test with INS1 is 11.3 µM (active). Also, the figures for the EC50 in the test with Streptococcus and at Protein RecA were 6.26 µM (active) and 0.124 µM (active), respectively.
A word on the IC50: it is the point on the concentration scale where inhibition reaches its midpoint. Consider `Oc1c(C(c2ccccc2Cl)N2CCCC2)ccc2cccnc12` (centres undefined), for which the AC50 in the test on INS1 is 3.41 µM (active). Moreover, the EC50 in test [1] was > 160 µM (inactive); in [2], 1.08 µM (active); in [3], > 180 µM (inactive); in the test “cells [5]”, 27.4 µM (active); in test [4] it was > 160 µM (inactive); in “cells [6]”, > 350 µM (not active). The IC50 in [7] was 95.3 µM (inactive).
With `COc1cccc(/C=N/Nc2ccc([N+](=O)[O-])cn2)c1O`, the half-maximal activity concentration (AC50) in the test on INS1 was 2.14 µM (active). The EC50 in [2] was 1.51 µM (active); with Streptococcus, 1.65 µM (active); in the test “cells [5]”, > 350 µM (not active); in [4], 1.61 µM (inconclusive); in the test “cells [6]” it was 5.16 µM (active). For the same compound, the IC50 in test [7] is > 118 µM (inactive).
